Measured values published in patent publication US10870647B2, “Imidazopyridine derivative, method for preparing same, and pharmaceutical composition containing same as active ingredient for preventing or treating cancer” (DAEGU-GYEONGBUK MEDICAL INNOVATION FOUNDATION, priority 2016, dated 2020).
Like-named read-outs stand apart in the source and are kept apart here.

Tests used:
Test in all cases: Kinase selectivity, scanMAX Kinase assay panel (DiscoverX), % control at 1 uM
Format in all cases: binding
[1] = target: T1, scanMAX Kinase assay panel (Homo sapiens, UniProt O14936); details: CASK; 1 uM; read-out: Percent Control (%)
T1 construct: purchased DiscoverX
T1 sequence (O14936 1-926): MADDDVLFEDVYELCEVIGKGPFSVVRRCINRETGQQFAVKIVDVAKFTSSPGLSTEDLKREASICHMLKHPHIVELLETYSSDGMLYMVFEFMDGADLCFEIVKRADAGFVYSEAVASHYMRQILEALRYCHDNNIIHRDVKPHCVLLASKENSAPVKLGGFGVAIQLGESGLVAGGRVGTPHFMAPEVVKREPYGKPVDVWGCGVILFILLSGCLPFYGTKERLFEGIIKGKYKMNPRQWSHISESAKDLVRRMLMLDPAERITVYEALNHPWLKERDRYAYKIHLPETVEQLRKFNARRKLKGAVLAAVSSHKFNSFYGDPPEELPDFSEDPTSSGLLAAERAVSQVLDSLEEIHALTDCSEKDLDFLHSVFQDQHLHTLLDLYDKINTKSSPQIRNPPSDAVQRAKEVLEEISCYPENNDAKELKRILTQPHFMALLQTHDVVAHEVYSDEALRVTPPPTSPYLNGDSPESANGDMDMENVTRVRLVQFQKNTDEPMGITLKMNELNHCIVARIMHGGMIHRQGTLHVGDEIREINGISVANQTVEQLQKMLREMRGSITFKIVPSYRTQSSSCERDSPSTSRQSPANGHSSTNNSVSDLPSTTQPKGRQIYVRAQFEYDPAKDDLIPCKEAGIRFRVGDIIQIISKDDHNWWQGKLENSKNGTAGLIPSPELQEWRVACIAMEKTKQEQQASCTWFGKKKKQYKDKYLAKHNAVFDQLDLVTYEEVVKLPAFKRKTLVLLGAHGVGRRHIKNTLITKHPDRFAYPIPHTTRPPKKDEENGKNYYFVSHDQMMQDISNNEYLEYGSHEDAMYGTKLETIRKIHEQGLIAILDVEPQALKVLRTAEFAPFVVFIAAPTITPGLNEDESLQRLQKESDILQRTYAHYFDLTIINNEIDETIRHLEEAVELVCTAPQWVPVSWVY
In short: (§1)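 1 uM cpd (DMSO) per kinase; % ctrl = [cpd − pos ctrl]/[neg ctrl − pos ctrl] × 100; hit if <35.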

[2] = target: T2, scanMAX Kinase assay panel (Homo sapiens, UniProt P00519, Q252H); details: 1 uM, read-out: Percent Control (%)
T2 construct: purchased DiscoverX
In short: as §1

[3] = target: T3, scanMAX Kinase assay panel (Homo sapiens, UniProt P49761); details: CLK3; 1 uM; read-out: Percent Control (%)
T3 construct: purchased DiscoverX
T3 sequence (P49761 whole entry): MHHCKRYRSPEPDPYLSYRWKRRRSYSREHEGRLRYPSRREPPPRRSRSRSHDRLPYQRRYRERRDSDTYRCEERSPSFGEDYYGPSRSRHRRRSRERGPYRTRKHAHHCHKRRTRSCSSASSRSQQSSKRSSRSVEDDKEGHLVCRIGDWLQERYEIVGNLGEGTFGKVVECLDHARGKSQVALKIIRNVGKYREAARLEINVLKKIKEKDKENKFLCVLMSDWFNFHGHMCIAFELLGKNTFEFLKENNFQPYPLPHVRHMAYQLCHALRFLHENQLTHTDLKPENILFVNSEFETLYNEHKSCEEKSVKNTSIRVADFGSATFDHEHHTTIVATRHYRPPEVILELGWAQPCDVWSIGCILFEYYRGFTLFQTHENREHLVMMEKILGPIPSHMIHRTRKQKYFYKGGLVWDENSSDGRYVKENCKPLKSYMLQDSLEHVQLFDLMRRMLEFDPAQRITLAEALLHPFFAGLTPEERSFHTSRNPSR
In short: as §1

[4] = target: T4, scanMAX Kinase assay panel (Homo sapiens, UniProt Q13233); details: MAP3K1; 1 uM; read-out: Percent Control (%)
T4 construct: purchased DiscoverX
T4 sequence (Q13233 whole entry): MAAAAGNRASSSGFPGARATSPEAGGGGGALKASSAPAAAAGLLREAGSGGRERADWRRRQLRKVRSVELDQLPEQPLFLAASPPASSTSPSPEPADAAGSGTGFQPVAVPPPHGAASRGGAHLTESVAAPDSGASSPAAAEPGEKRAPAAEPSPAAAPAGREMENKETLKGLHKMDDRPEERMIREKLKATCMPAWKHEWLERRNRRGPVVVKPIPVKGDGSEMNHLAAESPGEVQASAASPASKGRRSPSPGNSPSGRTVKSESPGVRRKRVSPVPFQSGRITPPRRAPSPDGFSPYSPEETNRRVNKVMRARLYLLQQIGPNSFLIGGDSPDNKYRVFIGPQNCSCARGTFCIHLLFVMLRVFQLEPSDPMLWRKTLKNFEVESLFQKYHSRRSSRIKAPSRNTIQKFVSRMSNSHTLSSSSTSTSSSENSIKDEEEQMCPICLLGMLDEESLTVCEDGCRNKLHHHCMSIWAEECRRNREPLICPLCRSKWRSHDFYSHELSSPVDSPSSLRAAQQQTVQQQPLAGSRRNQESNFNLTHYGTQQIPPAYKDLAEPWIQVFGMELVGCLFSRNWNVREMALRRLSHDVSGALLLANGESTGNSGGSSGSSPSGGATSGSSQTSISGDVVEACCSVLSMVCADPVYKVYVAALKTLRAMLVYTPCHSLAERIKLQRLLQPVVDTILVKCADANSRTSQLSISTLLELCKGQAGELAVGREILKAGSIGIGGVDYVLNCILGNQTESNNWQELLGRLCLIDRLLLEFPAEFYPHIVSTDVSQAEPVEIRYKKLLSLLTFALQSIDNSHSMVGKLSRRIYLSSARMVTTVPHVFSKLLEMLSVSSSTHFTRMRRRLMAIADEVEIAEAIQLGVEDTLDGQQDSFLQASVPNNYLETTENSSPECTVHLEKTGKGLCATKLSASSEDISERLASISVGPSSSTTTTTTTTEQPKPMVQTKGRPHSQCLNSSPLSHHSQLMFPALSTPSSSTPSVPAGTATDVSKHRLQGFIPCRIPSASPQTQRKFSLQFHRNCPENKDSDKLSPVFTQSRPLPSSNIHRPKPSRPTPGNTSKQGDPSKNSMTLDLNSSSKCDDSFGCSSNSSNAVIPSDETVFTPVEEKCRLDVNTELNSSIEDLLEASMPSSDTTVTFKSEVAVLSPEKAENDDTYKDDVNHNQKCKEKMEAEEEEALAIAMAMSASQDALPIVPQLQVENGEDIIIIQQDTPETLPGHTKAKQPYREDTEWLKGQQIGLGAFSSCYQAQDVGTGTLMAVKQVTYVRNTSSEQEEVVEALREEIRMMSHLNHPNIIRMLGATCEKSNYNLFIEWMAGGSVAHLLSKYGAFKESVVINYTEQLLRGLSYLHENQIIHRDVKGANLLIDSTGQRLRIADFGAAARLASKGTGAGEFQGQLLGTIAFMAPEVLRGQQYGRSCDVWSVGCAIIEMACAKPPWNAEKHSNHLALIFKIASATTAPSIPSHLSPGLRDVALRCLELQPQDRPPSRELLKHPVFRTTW
In short: as §1

[5] = target: T5, scanMAX Kinase assay panel (Homo sapiens, UniProt Q13554); details: CAMK2B; 1 uM; read-out: Percent Control (%)
T5 construct: purchased DiscoverX
T5 sequence (Q13554 whole entry): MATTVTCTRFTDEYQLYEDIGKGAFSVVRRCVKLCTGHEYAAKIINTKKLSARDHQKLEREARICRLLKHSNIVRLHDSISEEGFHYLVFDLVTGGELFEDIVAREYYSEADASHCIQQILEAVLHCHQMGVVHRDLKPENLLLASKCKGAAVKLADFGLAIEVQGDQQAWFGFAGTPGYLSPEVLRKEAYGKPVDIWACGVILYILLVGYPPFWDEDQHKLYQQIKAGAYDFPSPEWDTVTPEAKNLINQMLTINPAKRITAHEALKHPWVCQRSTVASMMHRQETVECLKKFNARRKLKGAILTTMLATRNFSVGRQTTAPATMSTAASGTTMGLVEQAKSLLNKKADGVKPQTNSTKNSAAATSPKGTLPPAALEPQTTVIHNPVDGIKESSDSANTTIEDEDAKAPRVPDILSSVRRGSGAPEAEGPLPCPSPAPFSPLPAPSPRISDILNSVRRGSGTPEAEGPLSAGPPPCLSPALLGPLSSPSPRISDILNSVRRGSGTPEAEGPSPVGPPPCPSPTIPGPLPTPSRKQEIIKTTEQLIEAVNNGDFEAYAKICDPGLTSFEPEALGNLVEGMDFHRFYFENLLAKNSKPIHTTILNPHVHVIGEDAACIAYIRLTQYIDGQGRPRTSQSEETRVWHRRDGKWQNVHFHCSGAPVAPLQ
In short: as §1

[6] = target: T6, scanMAX Kinase assay panel (Homo sapiens, UniProt Q16512); details: PKN1; 1 uM; read-out: Percent Control (%)
T6 construct: purchased DiscoverX
T6 sequence (Q16512 whole entry): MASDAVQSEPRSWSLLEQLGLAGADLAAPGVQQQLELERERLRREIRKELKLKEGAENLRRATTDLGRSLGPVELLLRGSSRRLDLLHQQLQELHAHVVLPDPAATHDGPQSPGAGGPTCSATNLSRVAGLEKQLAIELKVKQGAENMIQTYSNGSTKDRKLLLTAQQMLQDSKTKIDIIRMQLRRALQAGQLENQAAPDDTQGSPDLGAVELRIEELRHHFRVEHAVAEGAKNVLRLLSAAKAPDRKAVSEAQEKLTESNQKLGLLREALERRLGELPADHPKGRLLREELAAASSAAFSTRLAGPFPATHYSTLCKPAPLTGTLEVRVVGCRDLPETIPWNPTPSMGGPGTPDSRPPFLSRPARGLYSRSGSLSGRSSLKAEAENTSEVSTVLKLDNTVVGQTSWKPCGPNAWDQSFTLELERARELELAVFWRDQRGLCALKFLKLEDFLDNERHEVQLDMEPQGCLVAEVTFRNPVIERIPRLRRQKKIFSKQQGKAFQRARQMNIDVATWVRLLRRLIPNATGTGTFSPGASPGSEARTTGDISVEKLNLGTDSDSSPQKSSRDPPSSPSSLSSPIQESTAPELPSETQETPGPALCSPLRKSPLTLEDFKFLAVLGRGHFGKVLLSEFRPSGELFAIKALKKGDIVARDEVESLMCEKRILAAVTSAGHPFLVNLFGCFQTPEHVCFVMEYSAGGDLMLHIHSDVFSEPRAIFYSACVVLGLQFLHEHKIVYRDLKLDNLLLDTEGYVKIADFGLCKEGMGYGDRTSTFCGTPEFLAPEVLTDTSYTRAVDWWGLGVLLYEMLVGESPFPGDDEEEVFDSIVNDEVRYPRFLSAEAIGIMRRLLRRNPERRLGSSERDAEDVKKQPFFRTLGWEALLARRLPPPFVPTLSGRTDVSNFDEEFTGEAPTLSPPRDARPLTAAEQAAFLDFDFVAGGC
In short: as §1

[7] = target: T7, scanMAX Kinase assay panel (Homo sapiens, UniProt Q92630); details: DYRK2; 1 uM; read-out: Percent Control (%)
T7 construct: purchased DiscoverX
T7 sequence (Q92630 1-601): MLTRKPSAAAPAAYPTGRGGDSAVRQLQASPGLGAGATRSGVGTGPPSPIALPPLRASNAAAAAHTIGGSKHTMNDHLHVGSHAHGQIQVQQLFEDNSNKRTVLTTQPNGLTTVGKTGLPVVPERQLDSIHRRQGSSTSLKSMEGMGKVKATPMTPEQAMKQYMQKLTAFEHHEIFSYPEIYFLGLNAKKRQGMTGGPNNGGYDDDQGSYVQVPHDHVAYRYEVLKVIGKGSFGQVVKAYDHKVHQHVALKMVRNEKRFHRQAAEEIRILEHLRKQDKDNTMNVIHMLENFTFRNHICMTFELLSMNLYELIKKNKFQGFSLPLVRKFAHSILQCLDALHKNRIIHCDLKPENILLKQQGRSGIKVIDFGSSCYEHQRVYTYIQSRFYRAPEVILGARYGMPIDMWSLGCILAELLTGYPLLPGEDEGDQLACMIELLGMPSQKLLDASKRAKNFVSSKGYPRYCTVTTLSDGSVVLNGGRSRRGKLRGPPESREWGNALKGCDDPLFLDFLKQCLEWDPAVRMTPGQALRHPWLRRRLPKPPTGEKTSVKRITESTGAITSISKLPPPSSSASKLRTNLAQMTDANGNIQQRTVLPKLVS
In short: as §1

[8] = target: T8, scanMAX Kinase assay panel (Homo sapiens, UniProt Q9H1R3); details: MYLK2; 1 uM; read-out: Percent Control (%)
T8 construct: purchased DiscoverX
T8 sequence (Q9H1R3 whole entry): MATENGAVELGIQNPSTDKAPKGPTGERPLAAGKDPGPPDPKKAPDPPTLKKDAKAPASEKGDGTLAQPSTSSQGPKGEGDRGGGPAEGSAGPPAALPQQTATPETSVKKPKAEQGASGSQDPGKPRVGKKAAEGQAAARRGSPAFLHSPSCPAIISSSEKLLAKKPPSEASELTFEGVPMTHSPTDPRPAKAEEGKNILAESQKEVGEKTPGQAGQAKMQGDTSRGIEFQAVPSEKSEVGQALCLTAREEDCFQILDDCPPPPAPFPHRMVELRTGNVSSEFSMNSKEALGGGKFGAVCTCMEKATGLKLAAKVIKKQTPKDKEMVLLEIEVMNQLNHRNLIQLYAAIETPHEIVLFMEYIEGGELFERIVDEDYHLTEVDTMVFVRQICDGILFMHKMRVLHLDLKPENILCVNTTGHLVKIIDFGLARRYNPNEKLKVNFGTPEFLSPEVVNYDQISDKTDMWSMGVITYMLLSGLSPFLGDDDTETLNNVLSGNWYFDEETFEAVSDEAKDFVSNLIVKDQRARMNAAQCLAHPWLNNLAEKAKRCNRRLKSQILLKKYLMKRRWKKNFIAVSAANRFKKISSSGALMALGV
In short: as §1

[9] = target: T9, scanMAX Kinase assay panel (Homo sapiens, UniProt Q9UEW8); details: STK39; 1 uM; read-out: Percent Control (%)
T9 construct: purchased DiscoverX
In short: as §1

Q: Cc1ccc(C(=O)Nc2ccc(CN3CCN(C)CC3)c(C(F)(F)F)c2)cc1C#Cc1cnc2c(Nc3cnn(C)c3)cccn12 [Example 1, 4-methyl-3-((8-((1-methyl-1H-pyrazol-4-yl)amino)imidazo[1,2-a]pyridin-3-yl)ethynyl)-N-(4-((4-methylpiperazin-1-yl)methyl)-3-(trifluoromethyl)phenyl)benzamide] was tested. Which remaining binding at 1 µM [1] did it give?
A: 74%

Q: What about the remaining binding at 1 µM ([2]; ABL1 (Q252H)-nonphosphorylated) of the same compound?
A: 7%

Q: And the remaining binding at 1 µM ([2]; ABL1 (Q252H)-phosphorylated)?
A: 0%

Q: What about the remaining binding at 1 µM [3] of the same compound?
A: 48%

Q: And the remaining binding at 1 µM [4]?
A: 44%

Q: And the remaining binding at 1 µM [5]?
A: 76%

Q: What about the remaining binding at 1 µM [6] of the same compound?
A: 78%

Q: And the remaining binding at 1 µM [7]?
A: 75%

Q: And the remaining binding at 1 µM [8]?
A: 6%

Q: And the remaining binding at 1 µM [9]?
A: 97%

Q: With Cc1cn(-c2cc(NC(=O)c3ccc(C)c(C#Cc4cnc5c(Nc6cnn(C)c6)cccn45)c3)cc(C(F)(F)F)c2)cn1 [Example 12, 4-methyl-N-(3-(4-methyl-1H-imidazol-1-yl)-5-(trifluoromethyl)phenyl)-3-((8-((1-methyl-1H-pyrazol-4-yl)amino)imidazo[1,2-a]pyridin-3-yl)ethynyl)benzamide] as the compound, how does the remaining binding at 1 µM [1] read?
A: 90%

Q: And the remaining binding at 1 µM ([2]; ABL1 (Q252H)-nonphosphorylated)?
A: 3%

Q: And the remaining binding at 1 µM ([2]; ABL1 (Q252H)-phosphorylated)?
A: 14%

Q: And the remaining binding at 1 µM [3]?
A: 100%

Q: What about the remaining binding at 1 µM [4] of the same compound?
A: 67%

Q: And the remaining binding at 1 µM [5]?
A: 96%

Q: And the remaining binding at 1 µM [6]?
A: 82%

Q: What about the remaining binding at 1 µM [7] of the same compound?
A: 91%

Q: What about the remaining binding at 1 µM [8] of the same compound?
A: 40%

Q: And the remaining binding at 1 µM [9]?
A: 87%

Q: For Cc1ccc(NC(=O)C2(C(=O)Nc3ccc(F)cc3)CC2)cc1C#Cc1cnc2c(Nc3cnn(C(C)C)c3)cccn12 [Example 78], which remaining binding at 1 µM [1] is on record?
A: 100%

Q: What about the remaining binding at 1 µM ([2]; ABL1 (Q252H)-nonphosphorylated) of the same compound?
A: 6%

Q: What about the remaining binding at 1 µM ([2]; ABL1 (Q252H)-phosphorylated) of the same compound?
A: 91%

Q: And the remaining binding at 1 µM [3]?
A: 100%

Q: And the remaining binding at 1 µM [4]?
A: 94%

Q: What about the remaining binding at 1 µM [5] of the same compound?
A: 100%

Q: And the remaining binding at 1 µM [6]?
A: 83%

Q: And the remaining binding at 1 µM [7]?
A: 94%

Q: What about the remaining binding at 1 µM [8] of the same compound?
A: 100%

Q: And the remaining binding at 1 µM [9]?
A: 89%
